Measurements: the NIST ThermoML archive (doi:10.1016/j.tca.2019.178383)
± gives the expanded uncertainty stated by the source.

Experiment: xn = mol fraction of the nth substance listed
Settings: for surface tension liquid-gas: Maximal bubble pressure; for mass density: 100 kPa, Liquid, Vibrating tube method

CCn1cc[n+](CCOC)c1.O=S(=O)([O-])C(F)(F)F + CC(C)O
Settings | mass density [kg/m3] | surface tension liquid-gas [mN/m]
288.15 K, x1 = 0.0997 | 929.227 ± 2.7 | 21.4 ± 1.5
288.15 K, x1 = 0.2004 | 1030.66 ± 2.2 | 22.3 ± 1.5
288.15 K, x1 = 0.3004 | 1105.98 ± 1.9 | 23.8 ± 1.5
288.15 K, x1 = 0.4003 | 1163.83 ± 1.7 | 25.5 ± 1.5
288.15 K, x1 = 0.5004 | 1210.18 ± 1.6 | 27.2 ± 1.5
288.15 K, x1 = 0.6008 | 1248.32 ± 1.5 | 28.9 ± 1.5
288.15 K, x1 = 0.7 | 1279.5 ± 1.5 | 30.8 ± 1.5
288.15 K, x1 = 0.7998 | 1306.12 ± 1.4 | 32.8 ± 1.5
288.15 K, x1 = 0.9003 | 1329.28 ± 1.4 | 34.5 ± 1.5
288.15 K, x1 = 1 | 1348.94 ± 1.4 | 36.3 ± 1.5
293.15 K, x1 = 0.0997 | 925.015 ± 2.7 | 21.1 ± 1.5
293.15 K, x1 = 0.2004 | 1026.4 ± 2.2 | 22 ± 1.5
293.15 K, x1 = 0.3004 | 1101.69 ± 1.9 | 23.6 ± 1.5
293.15 K, x1 = 0.4003 | 1159.55 ± 1.7 | 25.3 ± 1.5
293.15 K, x1 = 0.5004 | 1205.9 ± 1.6 | 27 ± 1.5
293.15 K, x1 = 0.6008 | 1244.05 ± 1.5 | 28.6 ± 1.5
293.15 K, x1 = 0.7 | 1275.23 ± 1.5 | 30.6 ± 1.5
293.15 K, x1 = 0.7998 | 1301.86 ± 1.4 | 32.6 ± 1.5
293.15 K, x1 = 0.9003 | 1325.01 ± 1.4 | 34.3 ± 1.5
293.15 K, x1 = 1 | 1344.66 ± 1.4 | 36.1 ± 1.5
298.15 K, x1 = 0.0997 | 920.772 ± 2.7 | 20.7 ± 1.5
298.15 K, x1 = 0.2004 | 1022.12 ± 2.2 | 21.7 ± 1.5
298.15 K, x1 = 0.3004 | 1097.4 ± 1.9 | 23.3 ± 1.5
298.15 K, x1 = 0.4003 | 1155.27 ± 1.7 | 25 ± 1.5
298.15 K, x1 = 0.5004 | 1201.63 ± 1.6 | 26.7 ± 1.5
298.15 K, x1 = 0.6008 | 1239.8 ± 1.5 | 28.4 ± 1.5
298.15 K, x1 = 0.7 | 1270.99 ± 1.5 | 30.4 ± 1.5
298.15 K, x1 = 0.7998 | 1297.61 ± 1.4 | 32.3 ± 1.5
298.15 K, x1 = 0.9003 | 1320.76 ± 1.4 | 34.1 ± 1.5
298.15 K, x1 = 1 | 1340.41 ± 1.4 | 35.8 ± 1.5
303.15 K, x1 = 0.0997 | 916.497 ± 2.7 | 20.3 ± 1.5
303.15 K, x1 = 0.2004 | 1017.82 ± 2.2 | 21.5 ± 1.5
303.15 K, x1 = 0.3004 | 1093.11 ± 1.9 | 23.1 ± 1.5
303.15 K, x1 = 0.4003 | 1150.99 ± 1.7 | 24.8 ± 1.5
303.15 K, x1 = 0.5004 | 1197.38 ± 1.6 | 26.5 ± 1.5
303.15 K, x1 = 0.6008 | 1235.56 ± 1.5 | 28.2 ± 1.5
303.15 K, x1 = 0.7 | 1266.76 ± 1.5 | 30.1 ± 1.5
303.15 K, x1 = 0.7998 | 1293.38 ± 1.4 | 32.1 ± 1.5
303.15 K, x1 = 0.9003 | 1316.53 ± 1.4 | 33.9 ± 1.5
303.15 K, x1 = 1 | 1336.17 ± 1.4 | 35.5 ± 1.5
308.15 K, x1 = 0.0997 | 912.188 ± 2.7 | 20 ± 1.5
308.15 K, x1 = 0.2004 | 1013.52 ± 2.2 | 21.2 ± 1.5
308.15 K, x1 = 0.3004 | 1088.82 ± 1.9 | 22.8 ± 1.5
308.15 K, x1 = 0.4003 | 1146.73 ± 1.7 | 24.6 ± 1.5
308.15 K, x1 = 0.5004 | 1193.13 ± 1.6 | 26.3 ± 1.5
308.15 K, x1 = 0.6008 | 1231.33 ± 1.5 | 28 ± 1.5
308.15 K, x1 = 0.7 | 1262.54 ± 1.4 | 29.8 ± 1.5
308.15 K, x1 = 0.7998 | 1289.17 ± 1.4 | 31.9 ± 1.5
308.15 K, x1 = 0.9003 | 1312.32 ± 1.4 | 33.6 ± 1.5
308.15 K, x1 = 1 | 1331.96 ± 1.4 | 35.3 ± 1.5
313.15 K, x1 = 0.0997 | 907.842 ± 2.7 | 19.7 ± 1.5
313.15 K, x1 = 0.2004 | 1009.19 ± 2.2 | 21 ± 1.5
313.15 K, x1 = 0.3004 | 1084.53 ± 1.9 | 22.6 ± 1.5
313.15 K, x1 = 0.4003 | 1142.47 ± 1.7 | 24.4 ± 1.5
313.15 K, x1 = 0.5004 | 1188.9 ± 1.6 | 26.1 ± 1.5
313.15 K, x1 = 0.6008 | 1227.11 ± 1.5 | 27.8 ± 1.5
313.15 K, x1 = 0.7 | 1258.34 ± 1.4 | 29.6 ± 1.5
313.15 K, x1 = 0.7998 | 1284.98 ± 1.4 | 31.7 ± 1.5
313.15 K, x1 = 0.9003 | 1308.13 ± 1.4 | 33.3 ± 1.5
313.15 K, x1 = 1 | 1327.77 ± 1.4 | 35.1 ± 1.5
318.15 K, x1 = 0.0997 | 903.442 ± 2.7 | 19.4 ± 1.5
318.15 K, x1 = 0.2004 | 1004.85 ± 2.2 | 20.7 ± 1.5
318.15 K, x1 = 0.3004 | 1080.23 ± 1.9 | 22.4 ± 1.5
318.15 K, x1 = 0.4003 | 1138.22 ± 1.7 | 24.2 ± 1.5
318.15 K, x1 = 0.5004 | 1184.68 ± 1.6 | 25.9 ± 1.5
318.15 K, x1 = 0.6008 | 1222.91 ± 1.5 | 27.6 ± 1.5
318.15 K, x1 = 0.7 | 1254.16 ± 1.4 | 29.4 ± 1.5
318.15 K, x1 = 0.7998 | 1280.8 ± 1.4 | 31.5 ± 1.5
318.15 K, x1 = 0.9003 | 1303.96 ± 1.4 | 33.1 ± 1.5
318.15 K, x1 = 1 | 1323.6 ± 1.4 | 34.9 ± 1.5
